Tested on: adult T. muris
Experiment: Ex vivo adult T. muris automated motility assay (primary/secondary screen at 100 μM and dose-response)
Design: species or system Trichuris muris
Settings: for PRIMARY_SCREEN_MINUS_LOG_FOLD_CHANGE_MOVEMENT: primary screen; for PRIMARY_SCREEN_MINUS_LOG_FOLD_CHANGE_MOVEMENT / SECONDARY_SCREEN_MINUS_LOG_FOLD_CHANGE_MOVEMENT: adult T. muris motility; for SECONDARY_SCREEN_MINUS_LOG_FOLD_CHANGE_MOVEMENT: secondary screen
Procedure: Severe combined immune deficiency (SCID) mice were bred in the Biological Services Facility at the University of Manchester. Both male and female SCID mice were infected with a high dose of 200 infective embryonated T. muris eggs via oral gavage. At day 35 post-infection, groups of 5 mice were killed and their […] colons removed. Guts were opened longitudinally, washed with pre-warmed Roswell Park Memorial Institute (RPMI) 1640 media supplemented with penicillin (500U/ml) and streptomycin (500μg/ml) and adult T. muris worms gently removed using fine forceps. Worms removed from SCID mice were maintained in RPMI-1640 media supplemented with penicillin (500U/ml) and streptomycin (500μg/ml) at approximately 37°C and studied on the same day. Using fine forceps, individual live worms were placed into 96 well plates containing 75μl of RPMI-1640 medium supplemented with penicillin (500U/ml) and streptomycin (500μg/ml) plus 1% final concentration of DMSO or compound dissolved in DMSO. In the primary screen the test compound concentration was 100μM. Plates were then incubated at 37°C, 5% CO2, and motility was analysed after 24 hours. Worm movement was quantified using an automated motility assay. This system gives an estimate of worm movement in each well by thresholding and quantifying pixel intensity variance over time. An earlier version of this system has been previously described. One adult T. muris worm was used per well, with one well per compound in each replicate of the primary screen. The primary screen was repeated each week for a period of four weeks giving four independent biological replicates from separate parasite batches for each compound. Dose-response curves were calculated with the four factor log-logistic model using the R package drc. The primary screen was carried out at 100μM final concentration. Assay plates were assigned unique IDs and statistical analysis was performed without knowledge of compound identities using R scripts. Once hit wells were identified, well/plate positions were mapped to compound identities using DataWarrior [28]. […] Compounds identified as having encouraging activity from the DMSO solution samples were then resynthesized for confirmatory testing.

[1] = combined primary and secondary screen minus log fold change in movement, adult T. muris, 100 μM
[2] = adult T. muris motility screen at 100 μM, combines primary and secondary screen minus log fold change in movement (mean where both are given)

Row | Compound | COMBINED_SCREEN_ACTIVITY [1] | PRIMARY_SCREEN_MINUS_LOG_FOLD_CHANGE_MOVEMENT (100 μM) | SECONDARY_SCREEN_MINUS_LOG_FOLD_CHANGE_MOVEMENT (100 μM) | COMBINED_SCREEN_ACTIVITY [2]
1 | COc1cc(F)ccc1-c1ccc2c(c1)N(CCc1ccccc1)C(=O)COC2 [Compound 146] | -0.8154 | -0.8154 |  | 
2 | COc1cccc(CN2C(=O)COCc3cc(-c4ccc(F)cc4OC)ccc32)c1 [Compound 177] | -1.282 | -1.282 |  | 
3 | Cn1cc(-c2ccc3c(c2)COCC(=O)N3Cc2ccc(C(F)(F)F)cc2)cn1 [Compound 165] | 10.5493 | 10.5493 |  | 
4 | CN1C(=O)COCc2c(-c3cccc(O)c3)cccc21 [Compound 9] | -1.134 | -1.134 |  | 
5 | CC(C)c1cccc(-c2ccc3c(c2)N(CCN2CCOCC2)C(=O)COC3)c1 [Compound 152] | 5.995 | 5.995 |  | 
6 | N#Cc1cccc(-c2ccc3c(c2)COCC(=O)N3Cc2ccccc2)c1 [Compound 90] | -1.512 | -1.512 |  | 
7 | CC(C)Oc1cccc(-c2ccc3c(c2)N(CCN2CCOCC2)C(=O)COC3)c1 [Compound 180] | -1.713 | -1.713 |  | 
8 | COc1cccc(CN2C(=O)COCc3ccc(-c4ccccc4)cc32)c1 [Compound 101] | -0.6789 | -0.6789 |  | 
9 | Cc1ccc(CN2C(=O)COCc3cc(-c4cccc(O)c4)ccc32)cc1 [Compound 98] | -1.09 | -1.09 |  | 
10 | CC(C)N1C(=O)COCc2ccc(-c3cnn(C)c3)cc21 [Compound 20] | 0.06851 | 0.06851 |  | 
11 | COc1cc(F)ccc1-c1ccc2c(c1)N(CC1CC1)C(=O)COC2 [Compound 70] | 11.6216 | 10.6243 | 12.6188 | 
12 | COc1cccc(CN2C(=O)COCc3cc(-c4ccccc4OC)ccc32)c1 [Compound 141] | -1.328 | -1.328 |  | 
13 | O=C1COCc2cc(-c3cccc(O)c3)ccc2N1Cc1ccc2c(c1)OCO2 [Compound 140] | -0.481 | -0.481 |  | 
14 | O=C1COCc2ccc(-c3cccnc3)cc2N1CC1CC1 [Compound 25] | -1.503 | -1.503 |  | 
15 | N#Cc1cccc(-c2ccc3c(c2)N(Cc2ccccc2)C(=O)COC3)c1 [Compound 89] | 0.3109 | 0.3109 |  | 
16 | CC(C)N1C(=O)COCc2ccc(-c3cc(F)cc(F)c3)cc21 [Compound 39] | 3.736 | 3.736 |  | 
17 | O=C1COCc2ccc(-c3cccc(O)c3)cc2N1CCc1ccccc1 [Compound 99] | -1.58 | -1.58 |  | 
18 | COCc1cccc(-c2ccc3c(c2)N(Cc2ccccc2)C(=O)COC3)c1 [Compound 118] | 10.5493 | 10.5493 |  | 
19 | O=C1COCc2ccc(Br)cc2N1CCc1ccccc1 [Compound 80] | 10.5493 | 10.5493 |  | 
20 | Cc1ccc(CN2C(=O)COCc3cc(-c4cnn(C)c4)ccc32)cc1 [Compound 82] | 0.6432 | 0.6432 |  | 
21 | CCN(CC)C(=O)c1cccc(-c2ccc3c(c2)N(Cc2ccccc2C)C(=O)COC3)c1 [Compound 191] |  | 10.7743 | 11.0339 | 10.9041
22 | O=C1COCc2ccc(-c3cccc(C(F)(F)F)c3)cc2N1CCN1CCOCC1 [Compound 184] | -1.964 | -1.964 |  | 
23 | COCCN1C(=O)COCc2ccc(-c3cccc(C(F)(F)F)c3)cc21 [Compound 108] | -0.2552 | -0.2552 |  | 
24 | Cc1ccc(CN2C(=O)COCc3ccccc32)cc1 [Compound 7] | -0.007203 | -0.007203 |  | 
25 | COCCN1C(=O)COCc2ccc(-c3ccc(F)cc3OC)cc21 [Compound 77] | 0.2033 | 0.2033 |  | 
26 | COc1ccccc1-c1ccc2c(c1)COCC(=O)N2CCN1CCOCC1 [Compound 135] | -1.035 | -1.035 |  | 

Row | Compound | COMBINED_SCREEN_ACTIVITY [1] | PRIMARY_SCREEN_MINUS_LOG_FOLD_CHANGE_MOVEMENT (100 μM) | SECONDARY_SCREEN_MINUS_LOG_FOLD_CHANGE_MOVEMENT (100 μM) | COMBINED_SCREEN_ACTIVITY [2]
27 | O=C1COCc2cc(Br)ccc2N1Cc1ccccc1 [Compound 54] | 0.1915 | 0.1915 |  | 
28 | O=C1COCc2cc(-c3cccnc3)ccc2N1Cc1ccccc1Cl [Compound 106] | 6.595 | 6.595 |  | 
29 | COc1ccc(-c2ccc3c(c2)N(Cc2ccccc2)C(=O)COC3)cn1 [Compound 102] | 0.7062 | 0.7062 |  | 
30 | O=C(O)c1cccc(-c2ccc3c(c2)N(Cc2cc(F)cc(F)c2)C(=O)COC3)c1 [Compound 178] | -2.449 | -2.449 |  | 
31 | CC(C)c1cccc(-c2ccc3c(c2)COCC(=O)N3Cc2ccc(C(=O)N(C)C)cc2)c1 [Compound 190] |  | 10.3993 | 11.6188 | 11.0091
32 | O=C(O)c1cccc(-c2ccc3c(c2)N(CC2CC2)C(=O)COC3)c1 [Compound 62] | -1.551 | -1.551 |  | 
33 | COCCN1C(=O)COCc2ccc(-c3ccc(F)c(Cl)c3)cc21 [Compound 83] | 1.936 | 1.936 |  | 
34 | O=C1COCc2ccc(-c3ccccc3)cc2N1CCN1CCOCC1 [Compound 85] | 0.2067 | 0.2067 |  | 
35 | O=C1COCc2ccc(-c3cccnc3)cc2N1CC1CCCCC1 [Compound 61] | 11.7341 | 10.8493 | 12.6188 | 
36 | COCCN1C(=O)COCc2ccc(-c3ccc(Cl)cc3)cc21 [Compound 53] | -0.5764 | -0.5764 |  | 
37 | COCCN1C(=O)COCc2ccc(-c3ccccc3C)cc21 [Compound 36] | -1.658 | -1.658 |  | 
38 | CCN(CC)C(=O)c1cccc(-c2ccc3c(c2)N(Cc2ccccc2)C(=O)COC3)c1 [Compound 187] |  | 7.09 | 12.6188 | 9.854
39 | COCCN1C(=O)COCc2ccc(-c3ccc(OC)cc3)cc21 [Compound 46] | -1.143 | -1.143 |  | 
40 | COc1ccccc1-c1ccc2c(c1)COCC(=O)N2CCc1ccccc1 [Compound 119] | -0.8266 | -0.8266 |  | 
41 | COCCN1C(=O)COCc2ccc(-c3cccc(F)c3)cc21 [Compound 38] | -1.255 | -1.255 |  | 
42 | O=C1COCc2ccc(-c3cccnc3)cc2N1Cc1ccccc1Cl [Compound 107] | 2.19 | 2.19 |  | 
43 | O=C1COCc2cc(-c3cccnc3)ccc2N1Cc1ccccc1 [Compound 51] | -0.6528 | -0.6528 |  | 
44 | COCCN1C(=O)COCc2ccc(-c3ccccc3OC)cc21 [Compound 45] | -1.409 | -1.409 |  | 
45 | COc1cc(F)ccc1-c1ccc2c(c1)N(Cc1cc(F)cc(F)c1)C(=O)COC2 [Compound 181] |  | -0.2325 |  | -0.2325
46 | O=C1COCc2ccc(Br)cc2N1CC1CCCCC1 [Compound 65] | -1.362 | -1.362 |  | 
47 | COCCN1C(=O)COCc2ccc(-c3cccc(C(C)C)c3)cc21 [Compound 66] | 7.026 | 7.026 |  | 
48 | COc1ccccc1-c1ccc2c(c1)N(CCN1CCOCC1)C(=O)COC2 [Compound 136] | -0.8162 | -0.8162 |  | 
49 | Cc1ccccc1-c1ccc2c(c1)N(CCN1CCOCC1)C(=O)COC2 [Compound 112] | -1.303 | -1.303 |  | 
50 | COCCN1C(=O)COCc2ccc(-c3cccc(COC)c3)cc21 [Compound 71] | -1.553 | -1.553 |  | 
51 | CN1C(=O)COCc2cc(Br)ccc21 [Compound 6] | -1.038 | -1.038 |  | 

Reference: paper PMC5321434, “Dihydrobenz[e][1,4]oxazepin-2(3H)-ones, a new anthelmintic chemotype immobilising whipworm and reducing infectivity in vivo” (PLoS Neglected Tropical Diseases, 2017)
